Measured values taken from article PMC6468809, “Structural Analysis of the 42 kDa Parvulin of Trypanosoma brucei” (Biomolecules, 2019).
*1 amine or outer side, *2 acyl side, *3 side chain or, on linkers, in order; H or OH if unused. Where a SMILES comes first, the peptide text is derived from it. [ ]: non-standard residue; d: D form. pT = C[C@@H](OP(=O)(O)O)[C@H](N)C(=O)O; Suc = O=C(CCC(=O)[*:2])[*:1]

Experiments:
[1] = test system: TbPar42-PPIase; assay: EXSY experiment, cis/trans isomerisation of peptide; format: biochemical, Trypanosoma brucei; conditions: 2.4 mM peptide, 50 μM TbPar42-PPIase, 25 mM potassium phosphate pH 6.26, 100% D2O, 27 °C, mixing time 400 ms
[2] = test system: hPin1; assay: as above; format: biochemical, human; conditions: 2.4 mM peptide, 50 μM hPin-PPIase, 25 mM potassium phosphate pH 6.26, 100% D2O, 27 °C, mixing time 400 ms
[3] = molecular target: TbPar42-PPIase (264-383) (Trypanosoma brucei brucei, UniProt Q57XM6); assay: biochemical
Sequence of TbPar42-PPIase (264-383) (Q57XM6 264-383): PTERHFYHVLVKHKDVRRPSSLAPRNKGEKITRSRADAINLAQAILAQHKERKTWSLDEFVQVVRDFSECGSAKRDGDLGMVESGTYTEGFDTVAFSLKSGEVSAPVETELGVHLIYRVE

[4] = molecular target: TbPar42 NterFHA (1-177) (Trypanosoma brucei brucei, UniProt Q57XM6); assay: biochemical
Sequence of TbPar42 NterFHA (1-177) (Q57XM6 1-177): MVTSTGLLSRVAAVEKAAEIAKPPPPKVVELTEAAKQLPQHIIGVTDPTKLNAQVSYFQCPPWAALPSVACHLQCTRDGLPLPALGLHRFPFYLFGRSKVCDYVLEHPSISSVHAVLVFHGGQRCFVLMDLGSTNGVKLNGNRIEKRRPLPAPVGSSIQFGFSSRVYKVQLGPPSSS
Protocol: After each step a ^1H-^15N-HSQC or SOFAST spectrum was recorded on a 700 MHz Ultrashield NMR spectrometer at 27 °C. The spectra were analyzed with the CcpNmr Analysis software, and the chemical shift perturbations were calculated with following equation [22]: Δδtotal=(ΔδH)^2+(0.154·ΔδN)²
Residues with chemical shifts ≥0.015 ppm (PPIase) or ≥0.04 ppm (NterFHA) were represented on the related protein structure using PyMOL [23]. For titrations of the peptide Ala-Glu-Ala-pThr-Glu-Ala-Xaa (Xaa representing Asp, Ile, Val, Ser, or Gln) to the NterFHA domain, the protein concentration was 250 µM and the peptides were titrated to a final concentration of 8 mM.

For `C[C@H](NC(=O)[C@@H]1CCCN1C(=O)[C@@H](NC(=O)[C@H](C)NC(=O)CCC(=O)O)[C@@H](C)OP(=O)(O)O)C(N)=O` [Suc-Ala-pThr-Pro-Ala-NH2] (Suc-A[pT]PA-NH2), the “isomerase activity on the peptide” value [1] was “no isomerase activity could be detected”, the “cis/trans exchange peaks of the peptide (EXSY)” value [2] was “exchange peaks generated exclusively in B” and the Kd [3] was about 10 mM. The Kd [4] was about 4 mM.
